# Source: ChEMBL document CHEMBL1146993, “Synthesis and structure-activity relationships of novel dipeptides and reduced dipeptides as ligands for melanocortin subtype-4 receptor” (Bioorg Med Chem Lett, 2006)
# How the values were obtained:
# Assay type in all cases: cell-based
# [1] = target: Melanocyte-stimulating hormone receptor (Homo sapiens, UniProt Q01726); experiment: Displacement of [125I]NDP-alpha-MSH from cloned human MC1R expressed in HEK293 cell
# [2] = target: Melanocortin receptor 5 (Homo sapiens, UniProt P33032); experiment: Displacement of [125I]NDP-alpha-MSH from cloned human MC5R expressed in HEK293 cell
# [3] = target: Melanocortin receptor 4 (Homo sapiens, UniProt P32245); experiment: Displacement of [125I]NDP-alpha-MSH from cloned human MC4R expressed in HEK293 cells
# [4] = target: Melanocortin receptor 3 (Homo sapiens, UniProt P41968); experiment: Displacement of [125I]NDP-alpha-MSH from cloned human MC3R expressed in HEK293 cell
# Sequence of Melanocortin receptor 3 (P41968 whole entry): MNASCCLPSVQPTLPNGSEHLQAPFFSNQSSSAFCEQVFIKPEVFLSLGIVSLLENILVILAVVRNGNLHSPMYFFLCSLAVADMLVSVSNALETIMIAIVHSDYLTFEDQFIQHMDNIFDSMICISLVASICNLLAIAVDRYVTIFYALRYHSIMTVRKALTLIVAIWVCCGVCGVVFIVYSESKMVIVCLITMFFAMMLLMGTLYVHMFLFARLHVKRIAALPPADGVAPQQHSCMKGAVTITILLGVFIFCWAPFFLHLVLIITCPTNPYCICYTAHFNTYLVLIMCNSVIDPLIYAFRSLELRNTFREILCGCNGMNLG
# Sequence of Melanocyte-stimulating hormone receptor (Q01726 whole entry): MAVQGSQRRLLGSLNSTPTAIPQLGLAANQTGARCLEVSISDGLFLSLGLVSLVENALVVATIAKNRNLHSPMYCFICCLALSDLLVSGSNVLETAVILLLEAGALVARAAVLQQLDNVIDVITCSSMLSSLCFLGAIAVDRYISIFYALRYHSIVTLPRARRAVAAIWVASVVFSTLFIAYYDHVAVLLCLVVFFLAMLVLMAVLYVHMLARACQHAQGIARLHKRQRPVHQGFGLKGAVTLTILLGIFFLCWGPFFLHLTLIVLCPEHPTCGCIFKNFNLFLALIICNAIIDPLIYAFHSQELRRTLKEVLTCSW
# Sequence of Melanocortin receptor 4 (P32245 whole entry): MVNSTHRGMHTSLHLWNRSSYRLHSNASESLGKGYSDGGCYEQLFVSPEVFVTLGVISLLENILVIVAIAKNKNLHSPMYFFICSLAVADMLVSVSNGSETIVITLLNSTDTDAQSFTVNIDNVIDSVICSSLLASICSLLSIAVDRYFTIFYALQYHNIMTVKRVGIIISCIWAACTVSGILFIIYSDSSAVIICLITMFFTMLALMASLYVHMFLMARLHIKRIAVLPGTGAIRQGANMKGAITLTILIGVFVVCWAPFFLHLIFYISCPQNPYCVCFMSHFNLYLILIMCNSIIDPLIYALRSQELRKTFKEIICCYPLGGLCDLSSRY
# Sequence of Melanocortin receptor 5 (P33032 whole entry): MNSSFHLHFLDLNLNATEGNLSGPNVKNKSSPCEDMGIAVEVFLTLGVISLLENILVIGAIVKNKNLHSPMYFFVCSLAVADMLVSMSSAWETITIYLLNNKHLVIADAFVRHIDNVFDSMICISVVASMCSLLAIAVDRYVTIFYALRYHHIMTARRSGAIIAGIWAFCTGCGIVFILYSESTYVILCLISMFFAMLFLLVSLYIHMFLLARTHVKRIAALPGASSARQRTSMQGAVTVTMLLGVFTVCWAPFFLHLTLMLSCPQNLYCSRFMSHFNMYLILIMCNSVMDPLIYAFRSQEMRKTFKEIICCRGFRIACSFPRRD
Ki [1] [µM],Ki [2] [µM],Ki [3] [µM],Ki [4] [µM],SMILES
7,0.92,0.0956,1.4,CCN(CC)CC(c1ccccc1F)N1CCN(C(=O)[C@@H](Cc2ccc(Cl)cc2)NC(=O)c2cc3ccccc3cn2)CC1 (some centres undefined)
5.8,0.95,0.0406,7,CCN(CC)CC(c1ccccc1F)N1CCN(C(=O)[C@@H](Cc2ccc(Cl)cc2)NC(=O)[C@H]2Cc3ccccc3CN2)CC1 (some centres undefined)
3,0.91,0.0104,4.2,CCN(CC)CC(c1ccccc1F)N1CCN(C(=O)[C@@H](Cc2ccc(Cl)cc2)NC(=O)CC2NCCc3ccccc32)CC1 (some centres undefined)
7,0.42,0.0058,1.9,CCN(CC)CC(c1ccccc1F)N1CCN(C(=O)[C@@H](Cc2ccc(Cl)cc2)NC(=O)C2Cc3ccccc3C(C)(C)N2)CC1 (some centres undefined)
6,1.2,0.0073,3.4,CCN(CC)CC(c1ccccc1F)N1CCN(C(=O)[C@@H](Cc2ccc(Cl)cc2)NC(=O)CC2NCc3ccccc32)CC1 (some centres undefined)
8.6,2,0.0173,4.6,CCN(CC)CC(c1ccccc1F)N1CCN(C(=O)[C@@H](Cc2ccc(Cl)cc2)NC(=O)CC2c3ccccc3CN2C)CC1 (some centres undefined)
20,1.4,0.0737,16,CCN(CC)CC(c1ccccc1F)N1CCN(C(=O)[C@@H](Cc2ccc(Cl)cc2)NC(=O)CC2(C)NCc3ccccc32)CC1 (some centres undefined)
–,–,0.178,–,CCN(CC)CC(c1ccccc1Cl)N1CCN(C(=O)[C@@H](Cc2ccc(Cl)cc2)NC(=O)CC2NCc3ccccc32)CC1 (stereo in doubt; 40a)
–,–,0.0181,–,CCN(CC)CC(c1ccccc1Cl)N1CCN(C(=O)[C@@H](Cc2ccc(Cl)cc2)NC(=O)CC2NCc3ccccc32)CC1 (stereo in doubt; 40b)
–,–,0.107,–,CCN(CC)CC(c1ccccc1Cl)N1CCN(C(=O)[C@@H](Cc2ccc(Cl)cc2)NC(=O)CC2NCc3ccccc32)CC1 (stereo in doubt; 41a)
–,–,0.0053,–,CCN(CC)CC(c1ccccc1Cl)N1CCN(C(=O)[C@@H](Cc2ccc(Cl)cc2)NC(=O)CC2NCc3ccccc32)CC1 (stereo in doubt; 41b)
–,–,0.0302,–,CCN(CC)CC(c1ccccc1Cl)N1CCN(C(=O)[C@@H](Cc2ccc(Cl)cc2)NC(=O)CC2NCCc3ccccc32)CC1 (stereo in doubt; 42)
–,–,0.0064,–,CCN(CC)CC(c1ccccc1Cl)N1CCN(C(=O)[C@@H](Cc2ccc(Cl)cc2)NC(=O)CC2NCCc3ccccc32)CC1 (stereo in doubt; 43)
